Data from patent publication US20140179726A1, “GUT MICROFLORA AS BIOMARKERS FOR THE PROGNOSIS OF CIRRHOSIS AND BRAIN DYSFUNCTION” (priority 2011, published 2014).

Assays:
[1] = system: cirrhotic patients with HE; assay: Comparison within the HE group: cognitive battery (PHES, block design, ICT) (Example 1); type: in vivo, human; conditions: HE patients on therapy, mean ± SD
Protocol: All subjects underwent a mini-mental status exam and only those scoring above 25 were included in the full study (11). Participants then underwent a 24-hour dietary recall. Subsequently a recommended cognitive battery consisting of the following tests was administered to the cirrhotic patients; (a) Psychometric hepatic encephalopathy score (PHES), (b) block design test (BDT: subjects are required to replicate standardized designs with given blocks in a timed manner. The score is based on the designs correctly copied) and (c) Inhibitory control test. [This is a 15 minute computerized test. Subjects are instructed to respond to alternating presentations of X and Y on the screen (targets) while inhibiting response when X and Y are not alternating (lures)] (3, 41). The PHES consists of 5 tests: number connection test-A/B (NCT-A/B: subjects are asked to “join the dots” between numbers or numbers and alphabets in a timed fashion and the number of seconds required is the outcome), digit symbol (DST: subjects are required to copy corresponding figures from a given list within 2 minutes and the number correctly copied is the result), line drawing [LDTt (time) and LDTe (errors): subjects are required to trace a line between two parallel lines and balance between speed and accuracy. Time required and the number of times the subject's line strays beyond the marked lines (errors) are recorded] and serial dotting (SDT, subjects are asked to dot the center of a group of blank circles and the time required is the outcome)]. The PHES is a validated battery for cognitive dysfunction in cirrhosis and tests for psychomotor speed, visuo-motor coordination, attention and set-shifting(32). The BDT tests for visuo-motor coordination. The ICT is a validated computerized test of attention, psychomotor speed, response inhibition and working memory. A high score on BDT, DST and ICT targets and a low score on the rest of the tests indicates good cognitive performance. Cirrhotic patients also underwent serum collection for inflammatory cytokines testing for innate immunity [IL-1b, IL-6, TNF-α (tumor necrosis factor-alpha)], Th1 response ([IFN-γ (interferon-gamma) and IL-2], Th2 response (IL-4, IL-10, IL-13], Th17 response (IL-17 and IL-23), and endotoxin. These were analyzed in duplicate by multiplex bead-based sandwich ELISA and LAL assay for endotoxin using published techniques by AssayGate Inc, Ijamsville, Md. (4, 17, 45).
The cirrhosis group was divided into those with and without HE and were compared. Data from the significant variables between HE and non-HE groups were combined in a MANOVA model. Within HE patients, comparison was made between those on lactulose alone to those with lactulose and rifaximin. Microbiome abundance comparisons between groups were made at a family level using non-parametric tests. A comparison was performed between patients on and withdrawn off of lactulose therapy using the Wilcoxon matched-pair signed rank tests. All values are presented as mean±standard deviation unless mentioned otherwise.

stool microbiome = assay: Stool microbiome by multitag pyrosequencing, family level, within HE group (Example 1); type: in vivo, human; design: normalized abundance of Streptococcaceae: unit not given here; conditions: HE patients
Protocol: Interrogation of the Microbiome: Stool was collected and DNA extracted for microbiome analysis within 24 hours of collection from patients and controls using published techniques (29). We first routinely use Length Heterogeneity PCR (LH-PCR) fingerprinting of the 16S rRNA to rapidly survey our samples and standardize the community amplification. We then interrogated the microbial taxa associated with the gut fecal microbiome using Multitag Pyrosequencing (MTPS). This technique allows the rapid sequencing of multiple samples at one time yielding thousands of sequence reads per sample (12).
Microbiome Community Fingerprinting: LH-PCR was done to standardize the community analysis as previously published (21). Briefly, total genomic DNA was extracted from tissue using Bio101 kit from MP Biomedicals Inc., Montreal, Quebec as per the manufacturer's instructions. About 10 ng of extracted DNA was amplified by PCR using a fluorescently labeled forward primer 27F (5’-(6FAM) AGAGTTTGATCCTGGCTCA G-3′, SEQ ID NO: 1) and unlabeled reverse primer 355R′ (5′-GCTGCCTCCCGTAGGAGT-3′, SEQ ID NO: 2). Both primers are universal primers for Bacteria (22). The LH-PCR products were diluted according to their intensity on agarose gel electrophoresis and mixed with ILS-600 size standards (Promega) and HiDi Formamide (Applied Biosystems, Foster City, Calif.). The diluted samples were then separated on a ABI 3130x1 fluorescent capillary sequencer (Applied Biosystems, Foster City, Calif.) and processed using the Genemapper™ software package (Applied Biosystems, Foster City, Calif.). Normalized peak areas were calculated using a custom PERL script and OTUs constituting less than 1% of the total community from each sample were eliminated from the analysis to remove the variable low abundance components within the communities.
MTPS: We employed the MTPS process to characterize the microbiome from the fecal samples. Specifically, we have generated a set of 96 emulsion PCR fusion primers that contain the 454 emulsion PCR linkers on the 27F and 355R primers and a different 8 base “barcode” between the A adapter and 27F primer. Thus, each fecal sample was amplified with unique bar-coded forward 16S rRNA primers and then up to 96 samples were pooled and subjected to emulsion PCR and pyrosequenced using a GS-FLX pyrosequencer (Roche). Data from each pooled sample were “deconvoluted” by sorting the sequences into bins based on the barcodes using custom PERL scripts. Thus, we were able to normalize each sample by the total number of reads from each barcode. We have noted that ligating tagged primers to PCR amplicons distorts the abundances of the communities and thus it is critical to incorporate the tags during the original amplification step (12). Several groups have employed various barcoding strategies to analyze multiple samples and this strategy is now well accepted (38).
RDP10 Analysis: We identified the taxa present in each sample using the Bayesian analysis tool in Version 10 of the Ribosomal Database Project (RDP10). The abundances of the bacterial identifications were then normalized using a custom PERL script and taxa present at >1% of the community were tabulated. We chose this cutoff because of our a priori assumption that taxa present in <1% of the community vary between individuals and have minimal contribution to the functionality of that community and 2,000 reads per sample will only reliably identify community components that are greater than 1% in abundance (13).
The cirrhosis group was divided into those with and without HE and were compared. Data from the significant variables between HE and non-HE groups were combined in a MANOVA model. Within HE patients, comparison was made between those on lactulose alone to those with lactulose and rifaximin. Microbiome abundance comparisons between groups were made at a family level using non-parametric tests. […]

OC[C@H]1O[C@@H](O[C@@H]2[C@@H](CO)OC(O)(CO)[C@H]2O)[C@H](O)[C@@H](O)[C@H]1O (mixture of isomers) [lactulose]
ICT targets ([1]; high = good cognition): 90.6 ± 8.64% | block design ([1]; high = good cognition): 24.9 ± 24.8 score | digit symbol ([1]; high = good cognition): 36.5 ± 14.0 score | ICT lures ([1]; high = poor cognition): 17.4 ± 10.8 number | Line drawing errors ([1]; high = poor cognition): 28.0 ± 18.6 score | Line drawing time ([1]; high = poor cognition): 106.9 ± 54.5 s | number connection-A ([1]; high = poor cognition): 55.2 ± 34.1 s | number connection-B ([1]; high = poor cognition): 189 ± 127 s | serial dotting ([1]; high = poor cognition): 88.7 ± 29.2 s | normalized abundance of Alcaligenaceae (stool microbiome): 12.6±9% | normalized abundance of Bacteroidaceae (stool microbiome): 39±35% | normalized abundance of Enterobacteriaceae (stool microbiome): 26±40% | normalized abundance of Lactobacillaceae (stool microbiome): 2±1% | normalized abundance of Porphyromonadaceae (stool microbiome): 14±21% | normalized abundance of Prevotellaceae (stool microbiome): 18±25% | normalized abundance of Ruminococcaceae (stool microbiome): 17±22% | normalized abundance of Streptococcaceae (stool microbiome): 4±10 | normalized abundance of Veillonellaceae (stool microbiome): 15±13%
